Measured values as given in PMC6934184, “Selective DNA-PKcs inhibition extends the therapeutic index of localized radiotherapy and chemotherapy” (The Journal of Clinical Investigation, 2019).

Target: T1, ABL1 H396P (Homo sapiens, UniProt P00519, H396P)
T1 construct: purchased Thermo Fisher Scientific (Life Technologies) SelectScreen
Test: SelectScreen LanthaScreen
Format: binding
Settings: read-out: % displacement
In short: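 Percent values come from Thermo SelectScreen profiling of NU5455, combining activity and binding assays. CSF1R was run in Z'LYTE format at Km app ATP, and CAMK1 in Adapta format with ATP listed at 10.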

SMILES: CN(C(=O)CN1CCOCC1)c1ccc2sc3c(-c4cccc5c(=O)cc(N6CC7CCC(C6)O7)oc45)cccc3c2c1 [NU5455]
- inhibition at 1 µM: 0.6%
